As a reminder, the IC50 is the concentration at which inhibition is half-maximal.

The record followed here is US20160113895A1, “Novel Use of Adapalene in Treating Esophageal Cancer and Gastrointestinal Stromal Tumor” (Biodelight Biotech Inc., priority 2013, published 2016).

One data set has as its system A549. As to the kind of experiment: 2D cell proliferation assay (Alamar Blue), A549. The class given is cell-based, human. To be noted: Homo sapiens; 2D, A549, 72 h; read-out: IC50. The source says:
(§1) Nsl-8 was subjected to 2D cell proliferation assays using four NSCLC cell lines (A549 (human adenocarcinomic alveolar basal epithelial cells with k-ras gene mutation), H1299 (human non-small cell lung carcinoma cell line with p53 mutation), H460 (human non-small cell lung carcinoma cell line with k-ras gene mutation), and HCC827 (human NSCLC cells with EGFR mutation of deletion from E746 to A750)) and the results were presented in Table 2. There were eight concentrations used for each drug for determining its IC50. […]. Actinomycin D was a chemotherapeutic drug simply used as a quality control for all the experiments.
(§2) In the 2D cell proliferation assay, cells were cultured in DMEM containing 10% FCS and Penicillin/Streptomycin. For the assays, cells were seeded in 150 μL medium on a 96-well cell culture plate and incubated at 37° C. overnight before the compounds were added. Compounds were prepared as predilution which was 16 fold concentrated to the final assay concentration. A day after cell seeding, 10 μL of prediluted compounds was added to the cells (1:16 dilution). Treatment of cells with 0.1% DMSO or 1% DMSO (for the two top concentrations of nsl-8) and 1.0E-05 M Staurosporine was served as high control (100% viability) and low control (0% viability), respectively. Measurement of the impact of compounds on cell viability was performed as follows: 5000 cells (A549 and HCC827) or 2500 cells (H1299 and H460) were seeded in the inner wells of 96-well-plates in 150 μL complete medium. Next day, compounds were added to the medium to reach the final concentration and then incubated at 37° C. in 5% or 10% CO2 depending on the medium for 72 h. Subsequently 10 μL Alamar Blue reagent was added and fluorescence at 590 nm was measured after 5 h incubation at 37° C. in 5% CO2 using a fluorometer.
(§3) Raw data were converted into percent cell viability relative to high control (solvent 0.1% DMSO or 1% DMSO for the two top concentrations of drug nsl-8) and low control (1.0E-05 M Staurosporine), which were set to 100% and 0%, respectively.
(In general: Alamar Blue is a resazurin reagent that responds to reducing activity.)

For another data set, the system named is H460. Nature of the data set: 2D cell proliferation assay (Alamar Blue), H460. The class given is cell-based, human. To be noted: Homo sapiens, NCI-H460; 2D, H460, 72 h; read-out: IC50.
Description: as §1, §2, §3

In another data set the test system is A549 implanted tumors. As to the kind of experiment: Subcutaneous A549 xenograft model, groups 1a/1b, i.p. The class given is in vivo, BALB/c nude mice. To be noted: 40 mg/kg i.p. once daily, after treatment days 48-52. The method, then:
All experiments were performed using either 5-6 weeks old female BALB/c nude mice (approximate weight: 16-20 g) (A549) or female SCID mice (approximate weight: 16-20 g) (A549 and HCC827). […] Animal behaviour was monitored daily.
At necropsy, animals were killed by cervical dislocation. Primary tumor weights and volumes were determined.
The treatment for groups 1a and 1b (A549 model) animals with drug nsl-8 was started on day 48 and terminated on day 69. The animals were not consecutively treated with nsl-8 during the entire treatment period of 48-68 days. Instead, there was an interruption between treatment days 48-52 and 62-66 (FIG. 4) due to an apparent weight loss observed in the treated animals, an ethical reason which caused the treatment to be suspended. […] However, the animals were able to recover from such a weight loss after several days of cessation of treatment (FIG. 5). After weight loss of treated animals was recovered, a second treatment cycle from days 62-66 was resumed (FIG. 5). This second treatment cycle caused weight loss again (FIG. 5). However, the study groups 1a and 1b were both terminated on day 69 due to the presence of tumor ulceration in some animals. Note that weight loss in animals treated with vehicle was also observed in the final stage of treatment (FIG. 5). We speculated that such a loss might be caused by the presence of 10% DMSO in the prepared vehicle. […]

For the next data set, the system named is HCC827. As to the kind of experiment: 3D cell proliferation assay (soft agar), HCC827. The class given is cell-based, human. Particulars: Homo sapiens, 3D soft agar. The method, then:
Drug nsl-8 was further subjected to a 3D cell proliferation assay for assessing its potential in inhibiting the growth of NSCLC tumors. The same four NSCLC cell lines used in 2D proliferation assays were grown in soft agar and the drug was added after the agar has solidified. The drug added cells were then incubated several days until colonies have formed in the solvent control. Subsequently, Alamar Blue which was a cell viability reagent was added and the corresponding fluorescence released was measured as an indirect quantification of colony growth in soft agar.
For each cell line, some 96 well culture plates were prepared. 100 μL of the soft agar bottom layer (0.6% final concentration in complete medium) was poured and left to solidify. 50 μL of the soft agar top layer (0.4% final concentration) containing the corresponding cells and cell number were then added on top, solidified and such 96 well plates were incubated overnight at 37° C. in 10% CO2. Next day, drugs were added at indicated final concentrations into the inner wells of the plate. Subsequently, the assays were incubated in cell culture incubators for the indicated period of time. Finally, the assays were developed using Alamar Blue and upon 3-5 h of incubation at 37 ° C. fluorescence intensity was determined (excitation: 560 nm, emission: 590 nm). […]

`COc1ccc(-c2ccc3cc(C(=O)O)ccc3c2)cc1C12CC3CC(CC(C3)C1)C2` [nsl-8, 6-[3-(1-adamantyl)-4-methoxyphenyl]-2-naphthalenecarboxylic acid]: the IC50 with A549 was 5.4 µM; in the data set on H460, 2 µM; in the data set on HCC827 it was 7.2 µM. Also, in the data set on A549 implanted tumors, the “weight loss in animals” value was 16%.
